In US4032654A, “Water-soluble, liquid concentrates of S-methyl-[(methyl-carbamoyl)oxy]-thioacetimidate and methyl N', N'-dimethyl-N-[(methyl-carbamoyl)oxy]-1-thiooxamimidate” (priority 1975, dated 1977):
≈ marks a conversion by molar mass, not a printed value.

Assay: physchem
Conditions: -6° C.
Description: Solubility of Methomyl and Oxamyl (2:1 wt. ratio) in CH3 OH/H2 O at -6° C.
Methomyl and oxamyl were added to various methanol:water solvent systems ranging from 100 wt. % CH3 OH to 30 wt. % CH3 OH:70 wt. % H2 O. The methomyl and oxamyl were dissolved in a 2:1 weight ratio of 50 wt. % methomyl to 25 wt. % oxamyl in the solvent systems. The samples were equilibrated at -6° C. in a constant temperature freezer after which they were seeded with methomyl and oxamyl crystals to ensure crystallization of both materials. After crystal-liquid equilibrium was assured, liquid was removed at -6° C. and assayed for methomyl and oxamyl. Solids were also removed at -6° C., washed with hexane and dried. The solids were then dissolved in methanol to yield a 10 wt. % solution. This solution was evaluated by thin layer chromatography (TLC) to ensure the solids consisted of both methomyl and oxamyl.

Compound: CNC(=O)ON=C(C)SC [Methomyl]
- solubility (30/70 ch3oh/h2o, both actives in solvent: Methomyl, with oxamyl, 2:1 wt., 30/70 CH3OH/H2O): 241 mg/mL (≈ 1490 mM)
- solubility (40/60 ch3oh/h2o, Methomyl alone in solvent, alone): 62 mg/mL (≈ 382 mM)
- solubility (40/60 ch3oh/h2o, both actives in solvent: Methomyl, with oxamyl, 2:1 wt., 40/60 CH3OH/H2O): 422 mg/mL (≈ 2600 mM)
- solubility (50/50 ch3oh/h2o, Methomyl alone in solvent, alone): 105 mg/mL (≈ 647 mM)
- solubility (50/50 ch3oh/h2o, both actives in solvent: Methomyl, with oxamyl, 2:1 wt., 50/50 CH3OH/H2O): 461 mg/mL (≈ 2840 mM)
- solubility (60/40 ch3oh/h2o, Methomyl alone in solvent, alone): 155 mg/mL (≈ 956 mM)
- solubility (60/40 ch3oh/h2o, both actives in solvent: Methomyl, with oxamyl, 2:1 wt., 60/40 CH3OH/H2O): 552 mg/mL (≈ 3400 mM)
- solubility (70/30 ch3oh/h2o, Methomyl alone in solvent, alone): 208 mg/mL (≈ 1280 mM)
- solubility (70/30 ch3oh/h2o, both actives in solvent: Methomyl, with oxamyl, 2:1 wt., 70/30 CH3OH/H2O): 342 mg/mL (≈ 2110 mM)
- solubility (80/20 ch3oh/h2o, Methomyl alone in solvent, alone): 263 mg/mL (≈ 1620 mM)
- solubility (80/20 ch3oh/h2o, both actives in solvent: Methomyl, with oxamyl, 2:1 wt., 80/20 CH3OH/H2O): 598 mg/mL (≈ 3690 mM)
- solubility (90/10 ch3oh/h2o, Methomyl alone in solvent, alone): 299 mg/mL (≈ 1840 mM)
- solubility (90/10 ch3oh/h2o, both actives in solvent: Methomyl, with oxamyl, 2:1 wt., 90/10 CH3OH/H2O): 737 mg/mL (≈ 4540 mM)
- Solubility, Methomyl alone in solvent (alone, 100/0 CH3OH/H2O): 30.7 gms/100 gms
- Solubility change when dissolved in combination (methanol:water solvent systems, 2:1 wt. ratio dissolved initially): increased
- Solubility, both actives in solvent: Methomyl (with oxamyl, 2:1 wt., 100/0 CH3OH/H2O): 82.5 gms/100 gms
